Usually IC50 stands for the midpoint of a concentration-inhibition curve. A low value points to inhibition by little substance.

The record followed here is patent US20240400518A1, “SOS1 INHIBITOR AND USE THEREOF” (KANAPH THERAPEUTICS INC., priority 2021, published 2024).

For one test, the target named is T1, SOS1 (Homo sapiens, UniProt Q07889).
T1 construct: adding equal amounts of HIS—SOS1cat (160 nM; Cytoskeleton, US); His (N); purchased Cytoskeleton, US
T1 sequence (Q07889 564-1049 limits assumed): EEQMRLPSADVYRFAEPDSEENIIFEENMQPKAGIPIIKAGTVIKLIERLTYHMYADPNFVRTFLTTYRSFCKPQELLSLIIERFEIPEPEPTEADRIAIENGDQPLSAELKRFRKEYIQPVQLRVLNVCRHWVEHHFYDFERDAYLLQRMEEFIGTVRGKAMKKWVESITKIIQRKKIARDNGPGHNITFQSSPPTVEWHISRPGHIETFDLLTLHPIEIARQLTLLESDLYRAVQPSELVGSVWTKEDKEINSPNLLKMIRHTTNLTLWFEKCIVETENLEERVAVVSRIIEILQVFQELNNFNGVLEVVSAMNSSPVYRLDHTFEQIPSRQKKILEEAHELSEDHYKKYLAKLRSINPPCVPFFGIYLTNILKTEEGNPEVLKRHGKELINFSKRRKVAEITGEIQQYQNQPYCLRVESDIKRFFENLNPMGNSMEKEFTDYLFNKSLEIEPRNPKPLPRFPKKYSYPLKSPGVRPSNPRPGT
Kind of test: SOS-catalyzed nucleotide exchange assay (HTRF, SOS1-mediated GTP loading of KRAS G12D). In kind it is biochemical. The conditions noted are these: GST-KRAS G12D, HIS-SOS1cat, IC50 class. The method, then: SOS1 activity was measured by SOS1-mediated GTP loading quantification of KRAS^G12D. GTP loaded KRAS^G12D was detected by HTRF (Homogeneous Time Resolved Fluorescence) using anti-GST terbium (Cisbio, France) as a donor and a fluorescence GTP analogue (EDA-GTP-DY-647P1, [DY-647P1 labeled 2′/3′-O-(2-aminoethyl-carbamoyl)guanosine-5′-triphosphate (Jena bioscience, Germany)]) as an acceptor.
Assay buffer was composed of 10 mM HEPES pH 7.4, 150 mM NaCl, 5 mM MgCl2, 1 mM DTT, 0.05% BSA Fraction V pH 7.0 (Sigma) and 0.0025% (v/v) Igepal (Sigma). KRAS^G12D working solution was prepared by adding equal amounts of GST-KRAS^G12D (100 nM) and anti-GST-terbium (2 nM; Cisbio, France) to the assay buffer and culturing on ice for 10 minutes. SOS1cat working solution was prepared by adding equal amounts of HIS—SOS1cat (160 nM; Cytoskeleton, US) and EDA-GTP-DY-647P1 (200 nM; Jena bioscience, Germany) to the assay buffer. Control solution was prepared by adding equal volumes of EDA-GTP-DY-647P1 and the assay buffer for normalization control to exclude GEF-independent GTP loading and background signals. In order to induce a reaction, 5 μL of the SOS1cat working solution or the control solution was injected into each well. 5 μL of a compound having various concentrations from 128 pM to 10 μM was added to wells containing the SOS1cat working solution and incubated at room temperature for 10 minutes to bind to SOS1.
10 μL of the KRAS^G12D solution was added to each well and incubated for 30 minutes at room temperature while shaking. HTRF was measured using a Thermo Varioskan (excitation 334 nm, emission 665 nm). The IC50 of each inhibitor was analyzed using Graphad Prism.
(TR-FRET usually uses a lanthanide donor and a delayed reading to cut background.)

Another test concerns the target T2, KRAS^G12C::SOS1 (Homo sapiens, UniProt Q07889).
T2 construct: purchased CISBIO, FRANCE 64KRASG12PEH
T2 sequence (Q07889 1-1333): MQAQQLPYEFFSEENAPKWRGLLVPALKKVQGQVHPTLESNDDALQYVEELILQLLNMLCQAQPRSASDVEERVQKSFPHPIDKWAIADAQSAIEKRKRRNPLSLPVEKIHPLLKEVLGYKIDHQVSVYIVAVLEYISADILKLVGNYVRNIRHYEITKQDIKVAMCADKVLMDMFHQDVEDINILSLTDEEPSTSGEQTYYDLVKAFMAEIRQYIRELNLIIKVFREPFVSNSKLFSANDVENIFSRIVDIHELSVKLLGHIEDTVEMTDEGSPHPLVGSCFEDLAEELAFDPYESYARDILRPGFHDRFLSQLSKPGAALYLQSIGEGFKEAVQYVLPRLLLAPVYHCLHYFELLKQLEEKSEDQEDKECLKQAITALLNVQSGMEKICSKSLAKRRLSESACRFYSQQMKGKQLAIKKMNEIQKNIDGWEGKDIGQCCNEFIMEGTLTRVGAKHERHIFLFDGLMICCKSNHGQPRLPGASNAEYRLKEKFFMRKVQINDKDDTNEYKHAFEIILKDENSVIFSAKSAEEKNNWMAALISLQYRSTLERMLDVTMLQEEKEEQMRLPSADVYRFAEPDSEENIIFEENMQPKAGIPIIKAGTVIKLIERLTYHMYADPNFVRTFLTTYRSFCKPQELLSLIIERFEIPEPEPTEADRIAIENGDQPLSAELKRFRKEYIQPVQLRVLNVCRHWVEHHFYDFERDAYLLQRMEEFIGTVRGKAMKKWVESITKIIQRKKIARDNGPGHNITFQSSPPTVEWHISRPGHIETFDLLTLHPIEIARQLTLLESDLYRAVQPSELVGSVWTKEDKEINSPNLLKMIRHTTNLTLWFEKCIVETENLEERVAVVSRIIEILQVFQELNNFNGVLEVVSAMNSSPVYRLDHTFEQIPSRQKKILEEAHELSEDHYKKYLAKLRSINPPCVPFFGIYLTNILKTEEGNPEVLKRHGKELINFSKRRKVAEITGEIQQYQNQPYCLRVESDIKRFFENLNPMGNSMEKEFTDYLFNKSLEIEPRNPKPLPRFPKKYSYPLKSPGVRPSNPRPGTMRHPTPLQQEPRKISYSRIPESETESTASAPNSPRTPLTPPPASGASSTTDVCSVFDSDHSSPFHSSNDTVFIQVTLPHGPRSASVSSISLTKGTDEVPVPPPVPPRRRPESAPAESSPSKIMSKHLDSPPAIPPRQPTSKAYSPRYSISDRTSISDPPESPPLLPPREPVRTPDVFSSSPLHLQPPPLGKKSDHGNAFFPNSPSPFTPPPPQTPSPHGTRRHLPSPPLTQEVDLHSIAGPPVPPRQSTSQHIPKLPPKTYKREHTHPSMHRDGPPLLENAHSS
The test can be described thus: KRAS G12C::SOS1 protein-protein interaction (PPI) inhibition assay (HTRF binding kit). The conditions noted are these: max inhibitor concentration 3 μM, three replicates, IC50 class. The protocol: Protein-protein interaction between SOS1 and KRAS^G12C was detected using KRAS G12C/SOS1 binding kit from CISBIO (64KRASG12PEH, CISBIO, FRANCE) according to the manufacturer's assay method. Briefly, the maximum concentration of an inhibitor sample was set to be 3 μM, and the inhibitor sample was diluted 7 times by 1/3, and samples having a total of 8 concentrations were prepared. In HTRF (Homogeneous Time-Resolved Fluorescence) exclusive 96-well low-volume white plate (66PL96005, CISBIO, FRANCE), 2 μL of an inhibitor sample prepared for each concentration, 5 μL of a mixed solution of Tag1 labeled KRAS^G12C protein and GTP diluted with the dilution solution provided by the manufacturer, and 5 μL of Tag2 labeled SOS1 protein were mixed, and added with 8 μL of a diluted solution where anti-Tag1 KRAS^G12CXL665 (HTRF acceptor) labeled antibody and anti-Tag2 SOS1 Terbium cryptate (HTRF donor) labeled antibody were mixed in an equal ratio and cultured at room temperature for 2 hours.

At SOS1, `C[C@@H](NC(=O)c1ccc(=O)n(-c2cccc(-c3ccnn3C)c2)c1)c1cccc(C(F)(F)CO)c1F` [Example 78, N-[(1R)-1-[3-(1,1-difluoro-2-hydroxyethyl)-2-fluorophenyl]ethyl]-1-[3-(1-methyl-1H-pyrazol-5-yl)phenyl]-6-oxo-1,6-dihydropyridine-3-carboxamide] gave an IC50 of under 1000 nM. Regarding `C[C@@H](NC(=O)c1ccc(=O)n(-c2ccc(OC(F)(F)F)cc2)n1)c1cc(N)cc(C(F)(F)F)c1` [Example 154], the IC50 at KRAS^G12C::SOS1 was under 1000 nM; on SOS1, 1000 to 10000 nM. The molecule `C[C@@H](NC(=O)c1ccc(=O)n(-c2ccc(-c3ccccc3)cc2)n1)c1cc(N)cc(C(F)(F)F)c1` [Example 24] displayed an IC50 against SOS1 of 1000 to 10000 nM.
